Experimental data from PubChem BioAssay (NCI).
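A five-concentration, 48-hour dose response in 96-well plates underlies each endpoint, interpolated linearly between surrounding concentrations. TGI marks complete inhibition of growth.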

Key:
Assay in all cases: NCI tumour cell line growth inhibition, 48 h
MDA-N = tested on: MDA-N
HOP-18 NSCLC = tested on: HOP-18 NSCLC
KM20L2 colon = tested on: KM20L2 colon
DMS 273 small cell lung = tested on: DMS 273 small cell lung
DMS 114 small cell lung = tested on: DMS 114 small cell lung
LXFL 529 NSCLC = tested on: LXFL 529 NSCLC
M19-MEL melanoma = tested on: M19-MEL melanoma
XF 498 CNS = tested on: XF 498 CNS
RXF-631 renal = tested on: RXF-631 renal

Structure (SMILES) | TGI (MDA-N) | TGI (HOP-18 NSCLC) | TGI (KM20L2 colon) | TGI (DMS 273 small cell lung) | TGI (DMS 114 small cell lung) | TGI (LXFL 529 NSCLC) | TGI (M19-MEL melanoma) | TGI (XF 498 CNS) | TGI (RXF-631 renal)
CNC(=S)N/N=C(/C)CCC/C(C)=N/NC(=S)NC | > 100 µM |  |  |  |  |  |  |  | 
CC(C)(C)C1CCN(C(=O)c2ccccc2)CC1 |  | > 100 µM | > 100 µM | > 100 µM | 98.8 µM | > 100 µM | > 100 µM |  | 
O=S(=O)(c1ccccc1)C1CN(Cc2ccccc2)CCN(Cc2ccccc2)C1 | 59.5 µM |  | > 100 µM | > 100 µM | > 100 µM | > 100 µM | > 100 µM | 63 µM | 
O=C1/C(=c2\c3ccccc3n3c(=O)c4ccccc4nc23)Nc2ccccc21 | 33.6 µM |  |  |  |  |  |  |  | 
NS(=O)(=O)c1ccc(NCc2cnc3ccccc3c2)cc1 | > 100 µM |  |  |  |  |  |  |  | 
O=C(/C=C/c1ccc2c(c1)OCO2)c1ccccc(=O)c1O | > 100 µM |  |  |  |  |  |  |  | 
Cn1c(C2CC(C)(C)c3c2c2ccccc2n3C)cc2ccccc21 (centres undefined) |  |  | > 304 µM | > 304 µM | > 304 µM | > 304 µM | > 304 µM | > 304 µM | 
COc1cc([C@@H]2c3cc4c(cc3[C@@H](NC(=O)c3ccc([N+](=O)[O-])cc3)C3COC(=O)[C@@H]32)OCO4)cc(OC)c1O (some centres undefined) |  | > 100 µM | 3.73 µM | 3.54 µM | 2.35 µM | > 100 µM | 19 µM | 0.964 µM | 4.48 µM
N#Cc1ccccc1/C=N/O |  | > 100 µM | > 100 µM | > 55.6 µM | > 100 µM | > 100 µM | > 100 µM | > 100 µM | 
Cc1cc2c(=O)cc(-c3ccc(C(=O)O)cc3)oc2c(C(=O)O)c1C |  | > 100 µM | > 100 µM | > 100 µM | > 100 µM | > 100 µM | > 100 µM |  | > 100 µM
O=C1CC23CC(=O)CC2(C1)c1ccccc1C3=O (centres undefined) |  | > 100 µM | > 100 µM | > 100 µM | > 100 µM | > 100 µM | > 100 µM | > 100 µM | 
O=CN/C=C/c1ccccc1O |  | > 100 µM | > 100 µM | > 100 µM | > 100 µM | > 100 µM | > 100 µM |  | 
COC1(C)Cc2c(c(C)c(O)c3c2C(=O)C=C(Cl)C3=O)O1 (centres undefined) | > 100 µM |  | > 100 µM | > 100 µM | 76.6 µM | 28.9 µM | 38.9 µM | > 56.4 µM | 
O=C(Cc1nc2ccccc2s1)NC12CC3CC(CC(C3)C1)C2 |  |  | > 100 µM | > 100 µM |  | > 100 µM | > 100 µM |  | > 100 µM
C=C1CCC2C(C)(CO)C(O)CCC2(C)C1CC(O)C1=CCOC1=O (centres undefined) |  | > 100 µM | > 100 µM | > 100 µM | > 100 µM | > 100 µM | > 100 µM |  | > 100 µM
COc1ccc2c(c1)N(CCC1CCCCN1C)c1ccccc1S2 (centres undefined) | 25.7 µM |  |  |  |  |  |  |  | 
FC(F)(F)c1ccccc1C=NC12CC3CC(CC(C3)C1)C2 |  |  | > 100 µM | > 100 µM | > 100 µM |  | > 100 µM | > 100 µM | 
COC(=O)c1c/c(=N\NC(=O)CC(=O)Nc2ccc(C)cc2)c2ccccc2o1 |  | > 100 µM | > 100 µM | > 100 µM | > 100 µM | > 100 µM | > 100 µM | > 100 µM | 
Cc1cc(NC(=O)C(=O)Cc2nc3ccccc3s2)ccc1Cl | > 100 µM | > 100 µM | > 100 µM | > 100 µM | > 100 µM | > 100 µM | > 100 µM | > 100 µM | 
Clc1ccc(CCn2cncn2)c(Cl)c1 |  | > 100 µM | > 100 µM | > 100 µM | > 100 µM | > 100 µM | > 100 µM |  | 
